Experimental data from the supplement of paper PMC7295968.
± gives the standard deviation of the averaged measurements.

How the values were obtained:
[1] = system: THP-1 (vitamin D3 differentiated); assay: cAMP EC50 (HTRF); higher = lower potency; details: 20 min
Method: (§1)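 Vitamin-D3-differentiated THP-1 cells were treated 4 h with compounds (1:10 serial dilutions, top 100 uM). Two 8-gene QuantiGene Plex signatures were read out as TBP-normalised rscores; the cos_weight_AC signature score (% of 10 uM isoproterenol active control) was fitted by 4PL/nonparametric fit to give EC50, with constant fits assigned one log unit outside the tested range. cAMP EC50s come from a 20 min HTRF assay with IBMX at 37 °C, fitted with the same algorithm.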

[2] = system: THP-1 (vitamin D3 differentiated); assay: EC50 of beta-agonist gene-signature score cos_weight_AC (signature02); details: 4 h
Method: as §1

[3] = system: THP-1 (vitamin D3 differentiated); assay: EC50 of beta-agonist gene-signature score cos_weight_AC (signature01); details: 4 h
Method: as §1

| SMILES | cAMP EC50 [1] [nM] | EC50 [2] [nM] | EC50 [3] [nM] |
| --- | --- | --- | --- |
| COc1ccc(CC(C)NCC(O)c2ccc(O)c(NC=O)c2)cc1 (centres undefined) [Formoterol] | 0.0101 | 0.108 | 0.254 |
| CC(C)(C)NCC(O)c1cc(O)cc(O)c1 (centres undefined) [Terbutaline] | 349 ± 260 | 230 | 216 |
| CCC(NC(C)C)C(O)c1ccc(O)c(O)c1 (centres undefined) [Isoetharine] | – | 48.4 | 32.1 |
| CC(Cc1ccc(O)cc1)NCC(O)c1cc(O)cc(O)c1 (centres undefined) [Fenoterol] | 1.75 ± 1.5 | 3.65 | 8.21 |
| Oc1ccc(CCNCCCCCCNCCc2ccccc2)cc1O [Dopexamine] | 13900 ± 12000 | – | – |
| CC(Cc1ccc(OCC(=O)O)cc1)NCC(O)c1cccc(Cl)c1 (centres undefined) | 50.1 ± 31 | 167 | 421 |
| Cn1cc(C(F)(F)F)nc1-c1ccc(OCC(O)CNCCOc2ccc(O)c(C(N)=O)c2)cc1 (centres undefined) | > 100000 | > 100000 | > 100000 |
| CC(C)(Cc1ccccc1)NCC(O)c1ccc(O)c(NS(C)(=O)=O)c1 (centres undefined) [Zinterol] | < 0.01 | 0.567 | 3.48 |
| CC(NCCc1ccc(O)cc1)C(O)c1ccc(O)cc1 (centres undefined) [Ritodrine] | 624 ± 160 | 294 | 295 |
| NC[C@H](O)c1ccc(O)c(O)c1 [Norepinephrine] | 0.42 ± 0.14 | 6.13 | 1.46 |
| COc1cc(NC(=O)CCN2CCC(OC(=O)Nc3ccccc3-c3ccccc3)CC2)c(Cl)cc1CNC[C@H](O)c1ccc(O)c2[nH]c(=O)ccc12 [Batefenterol] | – | – | 0.265 |
| OCc1cc([C@@H](O)CNCCCCCCOCCOCc2c(Cl)cccc2Cl)ccc1O [Vilanterol] | < 0.01 | 5.86 | 5.65 |
| CC(C)(C)NCC(O)c1ccccc1Cl (centres undefined) [Tulobuterol] | 32.1 ± 20 | 215 | – |
| O=c1ccc2c([C@@H](O)CNCCCCCCOCC(F)(F)c3ccccc3)ccc(O)c2[nH]1 [Abediterol] | < 0.01 | < 0.01 | < 0.01 |
| CC(CCc1ccc(O)cc1)NCCc1ccc(O)c(O)c1 (centres undefined) [Dobutamine] | 1.38 ± 0.91 | – | 8.15 |
| CNCCc1cnc[nH]1 [N-alpha-methylhistamine] | 180 ± 26 | 234 | 248 |
| CCC(NC(C)C)C(O)c1ccc(O)c2[nH]c(=O)ccc12 (centres undefined) [Procaterol] | – | 0.703 | – |
| CC(C)NCC(O)c1cc(O)cc(O)c1 (centres undefined) [Metaproterenol] | 5.17 ± 2.3 | – | 21.6 |
| COc1cc(C[C@@H]2NCCc3cc(O)c(O)cc32)cc(OC)c1OC [Tretoquinol] | – | – | 0.237 |
| CNC[C@H](O)c1ccc(O)c(O)c1 [Adrenaline] | – | 68.1 | 64.7 |
| C=C[C@@]1(C)CC(=O)[C@]2(O)[C@@]3(C)[C@@H](O)CCC(C)(C)[C@@H]3[C@H](O)[C@H](OC(C)=O)[C@@]2(C)O1 [Forskolin] | – | 2310 | 2770 |
| CC(C)(C)NCC(O)c1ccc(O)c(CO)c1 (centres undefined) [Salbutamol] | 10.6 ± 9.1 | 64.6 | 98.5 |
| COc1ccc(CC(C)(C)NC[C@H](O)c2cc(O)cc3c2OCC(=O)N3)cc1 [Olodaterol] | – | 0.127 | 2.88 |
